Patent publication US20250340574A1, “MODULATORS OF CYSTIC FIBROSIS TRANSMEMBRANE CONDUCTANCE REGULATOR” (Vertex Pharmaceuticals Incorporated, priority 2022, published 2025)

Biological target: T1, CFTR (F508del/MF-HBE cells) (Homo sapiens, UniProt P13569, DEL508-508)
T1 construct: human bronchial epithelial (HBE) cells derived from CF subjects heterozygous for F508del and a minimal function CFTR mutation (F508del/MF-HBE); endogenous in cells; host or cells: Primary human bronchial epithelial cells from CF subjects (F508del/MF genotype), differentiated at an air-liquid interface
T1 sequence (P13569 with tags, fused parts or gaps DEL508-508): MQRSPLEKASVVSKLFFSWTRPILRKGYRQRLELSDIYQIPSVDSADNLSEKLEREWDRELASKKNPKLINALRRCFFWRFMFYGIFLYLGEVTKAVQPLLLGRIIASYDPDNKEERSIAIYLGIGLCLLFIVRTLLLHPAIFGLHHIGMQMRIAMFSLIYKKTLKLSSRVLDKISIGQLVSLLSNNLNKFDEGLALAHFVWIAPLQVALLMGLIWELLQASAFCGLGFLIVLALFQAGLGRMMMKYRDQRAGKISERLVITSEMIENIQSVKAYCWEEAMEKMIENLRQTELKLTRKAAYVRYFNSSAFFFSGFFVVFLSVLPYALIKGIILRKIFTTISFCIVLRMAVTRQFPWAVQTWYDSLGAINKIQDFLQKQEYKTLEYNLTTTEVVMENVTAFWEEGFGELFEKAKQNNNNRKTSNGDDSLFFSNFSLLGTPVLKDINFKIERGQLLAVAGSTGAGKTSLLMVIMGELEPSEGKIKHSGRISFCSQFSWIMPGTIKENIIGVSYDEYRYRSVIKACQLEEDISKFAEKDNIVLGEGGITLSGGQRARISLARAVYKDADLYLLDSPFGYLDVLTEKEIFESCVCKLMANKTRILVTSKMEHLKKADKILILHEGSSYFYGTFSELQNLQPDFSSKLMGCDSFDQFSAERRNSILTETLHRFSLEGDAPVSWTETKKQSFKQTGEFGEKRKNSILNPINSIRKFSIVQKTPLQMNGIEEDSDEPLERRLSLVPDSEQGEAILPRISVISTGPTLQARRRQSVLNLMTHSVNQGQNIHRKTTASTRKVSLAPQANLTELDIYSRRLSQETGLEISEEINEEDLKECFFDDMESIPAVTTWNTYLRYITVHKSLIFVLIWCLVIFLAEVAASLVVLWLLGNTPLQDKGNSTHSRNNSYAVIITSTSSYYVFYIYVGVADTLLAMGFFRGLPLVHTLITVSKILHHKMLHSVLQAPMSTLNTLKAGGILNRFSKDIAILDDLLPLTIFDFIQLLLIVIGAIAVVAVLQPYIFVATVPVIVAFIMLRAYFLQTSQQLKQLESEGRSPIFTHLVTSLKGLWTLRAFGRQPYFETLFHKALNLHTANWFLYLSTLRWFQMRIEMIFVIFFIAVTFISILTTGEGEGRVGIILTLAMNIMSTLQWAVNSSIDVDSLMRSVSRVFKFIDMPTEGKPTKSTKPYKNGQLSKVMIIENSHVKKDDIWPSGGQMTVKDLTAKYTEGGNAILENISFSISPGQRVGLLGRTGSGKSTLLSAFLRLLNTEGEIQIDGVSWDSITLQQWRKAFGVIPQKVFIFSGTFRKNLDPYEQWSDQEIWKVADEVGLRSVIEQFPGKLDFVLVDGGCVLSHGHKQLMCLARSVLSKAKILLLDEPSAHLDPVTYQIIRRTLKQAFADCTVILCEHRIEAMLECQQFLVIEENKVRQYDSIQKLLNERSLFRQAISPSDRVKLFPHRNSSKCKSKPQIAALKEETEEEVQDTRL
Experiment: Ussing chamber assay of CFTR-mediated short-circuit currents, Assay D (single concentration of 1 μM)
Format: cell-based
Conditions: with 44 nM potentiator and 18 μM Tezacaftor, 18-24 hours, 20% human serum
Procedure: Ussing chamber experiments were performed using human bronchial epithelial (HBE) cells derived from CF subjects heterozygous for F508del and a minimal function CFTR mutation (F508del/MF-HBE) and cultured as previously described (Neuberger T, Burton B, Clark H, Van Goor F Methods Mol Biol 2011:741:39-54). After four days the apical media was removed, and the cells were grown at an air liquid interface for >14 days prior to use.
To isolate the CFTR-mediated short-circuit (ISC) current, F508del/MF-HBE grown on Costar® Snapwell™ cell culture inserts were mounted in an Ussing chamber and the transepithelial ISC was measured under voltage-clamp recording conditions (Vhold=0 mV) at 37° C. The basolateral solution contained (in mM) 145 NaCl, 0.83 K2HPO4, 3.3 KH2PO4, 1.2 MgCl2, 1.2 CaCl2, 10 Glucose, 10 HEPES (pH adjusted to 7.4 with NaOH) and the apical solution contained (in mM) 145 NaGluconate, 1.2 MgCl2, 1.2 CaCl2, 10 glucose, 10 HEPES (pH adjusted to 7.4 with NaOH) and 30 μM amiloride to block the epithelial sodium channel. Forskolin (20 μM) was added to the apical surface to activate CFTR, followed by apical addition of a CFTR inhibitor cocktail consisting of BPO, GlyH-101, and CFTR inhibitor 172 (each at 20 μM final assay concentration) to specifically isolate CFTR currents. The CFTR-mediated ISC (μA/cm^2) for each condition was determined from the peak forskolin response to the steady-state current following inhibition.
The activity of the CFTR corrector compounds on the CFTR-mediated ISC was determined in Ussing chamber studies as described above. The F508del/MF-HBE cell cultures were either incubated with the corrector compounds at a range of concentrations in combination with 33 nM (6R,12R)-17-amino-12-methyl-6,15-bis(trifluoromethyl)-13,19-dioxa-3,4,18-triazatricyclo[12.3.1.12,5]nonadeca-1(18),2,4,14,16-pentaen-6-ol and 18 μM Tezacaftor or were incubated with the corrector compounds at a single fixed concentration of 1 μM in combination with 44 nM (6R,12R)-17-amino-12-methyl-6,15-bis(trifluoromethyl)-13,19-dioxa-3,4,18-triazatricyclo[12.3.1.12,5]nonadeca-1(18),2,4,14,16-pentaen-6-ol and 18 μM Tezacaftor for 18-24 hours at 37° C. and in the presence of 20% human serum. The concentration of corrector compounds with 44 nM or 33 nM (6R,12R)-17-amino-12-methyl-6,15-bis(trifluoromethyl)-13,19-dioxa-3,4,18-triazatricyclo[12.3.1.12,5]nonadeca-1(18),2,4,14,16-pentaen-6-ol and 18 μM Tezacaftor during the 18-24 hours incubations was kept constant throughout the Ussing chamber measurement of the CFTR-mediated ISC to ensure compounds were present throughout the entire experiment. The efficacy and potency of the putative F508del correctors was compared to that of the known Vertex corrector, (14S)-8-[3-(2-{Dispiro[2.0.2.1]heptan-7-yl}ethoxy)-1H-pyrazol-1-yl]-12,12-dimethyl-2λ^6-thia-3,9,11,18,23-pentaazatetracyclo[17.3.1.111,14.05,10]tetracosa-1(22),5,7,9,19(23),20-hexaene-2,2,4-trione, in combination with 18 μM Tezacaftor and 1 μM Ivacaftor.
• Assay A: 0.1 μM to 25 μM, 6 concentrations • Assay B: 0.00001 μM to 25 μM, 12 concentrations • Assay C: 0.026 μM to 25 μM, 6 concentrations • Assay D: Activity at single concentration of 1 μM

| SMILES | D activity at 1 μM (%) |
| --- | --- |
| Cc1cccc(C)c1-c1cc2nc(n1)NS(=O)(=O)c1cccc(c1)C(=O)N(Cc1cnc3cc(C4CC4)n(C)c3n1)[C@H](CC(C)(C)C)CO2 [Compound I-150] | +++ (+++ is >60%) |
| Cc1cccc(C)c1-c1cc2nc(n1)NS(=O)(=O)c1cccc(c1)C(=O)N(Cc1cnc3oc(C(C)C)cc3n1)[C@H](CC1CCCO1)CO2 (single isomer, unassigned) [Compound I-22] | +++ (+++ is >60%) |
| Cc1cccc(C)c1-c1cc2nc(n1)NS(=O)(=O)c1cccc(c1)C(=O)N(Cc1cn3cccc(O)c3n1)[C@H](CC(C)(C)C)CO2 [III-15] | +++ (+++ is >60%) |
| Cc1cccc(C)c1-c1cc2nc(n1)NS(=O)(=O)c1cccc(c1)C(=O)N(Cc1nn(C(C)C)c3ccccc13)[C@H](CC(C)(C)C)CO2 [III-17] | +++ (+++ is >60%) |
| Cc1cccc(C)c1-c1cc2nc(n1)NS(=O)(=O)c1cccc(c1)C(=O)N(Cc1cnc3oc(C(C)C)cc3n1)[C@H](COC1CCCC1)CO2 [Compound I-120] | +++ (+++ is >60%) |
| Cc1cccc(C)c1-c1cc2nc(n1)NS(=O)(=O)c1cccc(c1)C(=O)N(Cc1cnc3oc(C(C)C)cc3n1)[C@H](C=C1CCC1)CO2 [Compound I-153] | +++ (+++ is >60%) |
| Cc1cccc(C)c1-c1cc2nc(n1)NS(=O)(=O)c1cccc(c1)C(=O)N(Cc1cnc3cc(C(C)C)n(C)c3n1)C(CC(C)(C)C1CC1)CO2 (centres unmarked) [Compound I-108] | +++ (+++ is >60%) |
| Cc1cccc(C)c1-c1cc2nc(n1)NS(=O)(=O)c1cccc(c1)C(=O)N(Cc1ccc3oc(C4(C)CC4)cc3n1)[C@H](CC1(C)CC1)CO2 [Compound I-226] | +++ (+++ is >60%) |
| Cc1cccc(C)c1-c1cc2nc(n1)NS(=O)(=O)c1cccc(c1)C(=O)N(Cc1cn3cccc(C(C)C)c3n1)[C@H](CC(C)(C)C)CO2 [III-5, (11R)-6-(2,6-dimethylphenyl)-11-(2,2-dimethylpropyl)-12-[(8-isopropylimidazo[1,2-a]pyridin-2-yl)methyl]-2,2-dioxo-9-oxa-2λ^6-thia-3,5,12,19-tetrazatricyclo[12.3.1.14,8]nonadeca-1(18),4(19),5,7,14,16-hexaen-13-one] | +++ (+++ is >60%) |
| Cc1cccc(C)c1-c1nc2nc(c1C)OC[C@@H](CC(C)(C)C)N(Cc1nc3cc(C4(C)CC4)oc3cc1F)C(=O)c1cccc(c1)S(=O)(=O)N2 [Compound I-236] | +++ (+++ is >60%) |
| Cc1cccc(C(C)C)c1-c1nc2nc(c1C)OC[C@@H](CC(C)(C)C)N(Cc1cnc3oc(C(C)C)cc3n1)C(=O)c1cccc(c1)S(=O)(=O)N2 (atropisomer, axis not shown) [Compound I-135] | +++ (+++ is >60%) |
| COCCn1c(C(C)C)cc2ncc(CN3C(=O)c4cccc(c4)S(=O)(=O)Nc4nc(cc(-c5c(C)cccc5C)n4)OC[C@H]3CC(C)(C)C)nc21 [Compound I-117, (11R)-6-(2,6-dimethylphenyl)-11-(2,2-dimethylpropyl)-12-[[6-isopropyl-5-(2-methoxyethyl)pyrrolo[2,3-b]pyrazin-3-yl]methyl]-2,2-dioxo-9-oxa-2λ^6-thia-3,5,12,19-tetrazatricyclo[12.3.1.14,8]nonadeca-1(18),4(19),5,7,14,16-hexaen-13-one] | +++ (+++ is >60%) |
| Cc1cccc(C(C)C)c1-c1nc2nc(c1C)OC[C@@H](CC(C)(C)C)N(Cc1cnc3oc(C(C)C)cc3n1)C(=O)c1cccc(c1)S(=O)(=O)N2 (atropisomer, axis not shown) [Compound I-136] | +++ (+++ is >60%) |
| Cc1cccc(C)c1-c1nc2nc(c1C)OC[C@@H](CC(C)(C)C)N(Cc1ccc3oc(C4(C)CC4)cc3n1)C(=O)c1cccc(c1)S(=O)(=O)N2 [Compound I-235] | +++ (+++ is >60%) |
| Cc1cccc(C)c1-c1cc2nc(n1)NS(=O)(=O)c1cccc(c1)C(=O)N(Cc1ccc3oc(C4(C)CC4)cc3n1)[C@H](COC(C)C)CO2 [Compound I-241] | +++ (+++ is >60%) |
| Cc1cccc(C)c1-c1nc2nc(c1C)OC[C@@H](COC(C)C)N(Cc1cnc3oc(C(C)(C)C)cc3n1)C(=O)c1cccc(c1)S(=O)(=O)N2 [Compound I-216] | +++ (+++ is >60%) |
| Cc1cccc(C)c1-c1cc2nc(n1)NS(=O)(=O)c1cccc(c1)C(=O)N(Cc1cnc3oc(C4CC4)cc3n1)[C@H](CC1(C)CCC1)CO2 [Compound I-116] | +++ (+++ is >60%) |
| Cc1cccc(C)c1-c1cc2nc(n1)NS(=O)(=O)c1cccc(c1F)C(=O)N(Cc1cnc3cc(C(C)C)n(CCO)c3n1)[C@H](CC1(C)CC1)CO2 [Compound I-215] | +++ (+++ is >60%) |
| Cc1cccc(CC(C)C)c1-c1nc2nc(c1C)OC[C@@H](CC13CC(C1)C3)N(Cc1cnc3oc(C(C)(C)C)cc3n1)C(=O)c1cccc(c1)S(=O)(=O)N2 [Compound I-248] | +++ (+++ is >60%) |
| Cc1cccc(C)c1-c1cc2nc(n1)NS(=O)(=O)c1cccc(c1)C(=O)N(Cc1cnc3nc(C4CC4)n(C)c3n1)[C@H](CC(C)(C)C)CO2 [Compound I-141] | +++ (+++ is >60%) |
| Cc1cccc(C)c1-c1cc2nc(n1)NS(=O)(=O)c1cccc(c1)C(=O)N(Cc1cnc3cn(C(C)C)nc3n1)[C@H](CC(C)(C)C)CO2 [Compound I-111] | +++ (+++ is >60%) |
| Cc1cccc(C)c1-c1cc2nc(n1)NS(=O)(=O)c1cccc(c1)C(=O)N(Cc1nc3c(cc(C(C)C)n3C)s1)[C@H](CC(C)(C)C)CO2 [III-20, (11R)-6-(2,6-dimethylphenyl)-11-(2,2-dimethylpropyl)-12-[(5-isopropyl-4-methyl-pyrrolo[2,3-d]thiazol-2-yl)methyl]-2,2-dioxo-9-oxa-2λ^6-thia-3,5,12,19-tetrazatricyclo[12.3.1.14,8]nonadeca-1(18),4(19),5,7,14,16-hexaen-13-one] | +++ (+++ is >60%) |

Same assay, conditions: with 44 nM potentiator and 18 μM Tezacaftor, 20% human serum

| SMILES | D act. at 1 μM (%) |
| --- | --- |
| COC(C)(C)CC(C)(O)c1cc2nc(CN3C(=O)c4cccc(c4)S(=O)(=O)Nc4nc(cc(-c5c(C)cccc5C)n4)OC[C@H]3CC3(C)CC3)cnc2o1 (stereo partly drawn) [IV-13, (11R)-6-(2,6-dimethylphenyl)-12-[[6-(1-hydroxy-3-methoxy-1,3-dimethyl-butyl)furo[2,3-b]pyrazin-2-yl]methyl]-11-[(1-methylcyclopropyl)methyl]-2,2-dioxo-9-oxa-2λ^6-thia-3,5,12,19-tetrazatricyclo[12.3.1.14,8]nonadeca-1(18),4(19),5,7,14,16-hexaen-13-one] | +++ (+++ is >60%) |
| Cc1cccc(C)c1-c1cc2nc(n1)NS(=O)(=O)c1cccc(c1)C(=O)N(Cc1cnc3sc(C4CC4)cc3n1)[C@H](CC1(C)CC1)CO2 [IV-41] | +++ (+++ is >60%) |
| Cc1cccc(C)c1-c1cc2nc(n1)NS(=O)(=O)c1cccc(c1)C(=O)N(Cc1cnc3oc([C@](C)(O)CO)cc3n1)[C@H](CC1(C)CC1)CO2 (single isomer, unassigned) [IV-15] | +++ (+++ is >60%) |
| Cc1cccc(C)c1-c1cc2nc(n1)NS(=O)(=O)c1cccc(c1)C(=O)N(Cc1cnc3oc(C#N)cc3n1)[C@H](CC1(C)CC1)CO2 [IV-28] | +++ (+++ is >60%) |
